Assay results as given in patent US5474986A, “Method for treating galabiose-binding bacteria infections” (priority 1988, dated 1995).

Test system: E. coli HB101/pPAP5 (agglutination of human erythrocytes)
Experiment: Inhibition of haemagglutination (HA inhibition) of human erythrocytes by E. coli
Assay type: cell-based
Settings: for IC50: Escherichia coli, Erythrocyte; for Relative potency (%): in relation to compound 1, calculated from IC50; for ΔΔG^o: ΔΔG°=RTlnKrel, Krel = IC50 ratio to compound 1; for inhibitory power (in words): haemagglutination inhibition, compared with the methyl galabioside / unmodified galabioside
From the text: Bacterial strain HB101/pPAPS. Plasmid pPAP5 carries the pap gene cluster isolated from the uropathogenic E.coli isolate J96. The clone produces P pill that mediate agglutination of human erythrocytes by binding to the galabiose-containing P-blood group antigens present on the erythrocyte surface. The galabiose binding property resides in the PapG gene product which is present at the tip of the P pilus as a minor component.
HA of a 1% human P erythrocyte suspension in phosphate-buffered saline was determined for agar-grown organisms by suspending the bacteria to a Klett of 490 (ca 1×10^9 bacteria/mL). A sample of the bacterial suspension (25 μL) was serially diluted in microtiter plates containing 25 μL PBS in each well. An equal volume of erythrocyte suspension was added and after mixing, the plates were incubated at 4° C. for 18 h. The HA endpoint was defined as the dilution in the last well before erythrocyte buttons were formed. The titer was expressed as the reciprocal of the endpoint dilution.
The HA titer of the strains to be tested was determined as described above and the cells were diluted so that each strain gave a titer of 64. The concentration of each of the analogues 1-25 was adjusted to 100 mM and 25 μL of each analogue was serially diluted in microtiter plates containing 25 μL of PBS in each well. The bacterial suspension (25 μL; HA titer=64) was then added to each well. After incubation for 30 min at room temperature, human erythrocytes (1% suspension) were added by gentle mixing and the plates were incubated at 4° C. overnight. The endpoint was defined as the greatest dilution of the analogue (minimal concentration) that gave a 50% inhibition of the HA (IC50).
The IC50 -values given in the tables are mean values from 3 consecutive runs. The ratio of the IC50 -value for an inhibitor and compound 1 is the relative equilibrium constant, Krel. This value was used for the calculation of the difference free energy values (ΔΔG°) using the expression ΔΔG°=RTlnKrel. It should be stressed that the conclusions made here about the nature of the adhesin receptor is based on the assumption that all the inhibitors have similar over-all confirmations oriented in a similar way in the receptor side and that only one type of galablest-specific receptor is present in the adhesin.

[1] = Table 1, inhibition of agglutination of human erythrocytes by E. coli, mean of 3 consecutive runs
[2] = Table 2, footnote a: separate inhibition experiment where reference compound 1 showed IC50 = 0.0434 mM
[3] = Table 2, footnote a: separate experiment, relative to compound 1 IC50 = 0.0434 mM
[4] = Table 2, glycoside analogs, inhibition of agglutination of human erythrocytes by E. coli, mean of 3 runs
[5] = Table 2, in relation to compound 1 (IC50 0.20 mM)
[6] = Table 2, relative to compound 1 (IC50 0.20 mM)

Compound | IC50 [1] [µM] | Relative potency (%) (Table 1) | ΔΔG^o (Table 1) [kcal/mol] | IC50 [4] [µM] | Inhib. power (%) [5] [%] | ΔΔG (kJmol^-1) [6] [kJmol^-1] | further results
CO[C@@H]1O[C@H](CO)[C@H](O[C@H]2O[C@H](CO)[C@H](O)C[C@H]2O)[C@H](O)[C@H]1O [Compound 6] | 6500 | 3.0 | 1.96 |  |  |  | 
CO[C@@H]1O[C@H](CO)[C@H](O[C@H]2O[C@H](CO)[C@H](O)[C@H](O)[C@H]2O)C[C@H]1O [Compound 3] | 1000 | 19 | 0.932 |  |  |  | 
CCCCS(=O)(=O)CC(CO[C@@H]1O[C@H](CO)[C@H](O[C@H]2O[C@H](CO)[C@H](O)[C@H](O)[C@H]2O)[C@H](O)[C@H]1O)CS(=O)(=O)CCCC [Compound 27, 3-Butylsulfonyl-2-butylsulfonylmethylpropyl 4-O-α-D-galactopyranosyl-β-D-galactopyranoside] |  |  |  |  |  |  | IC50 [2]: 2.3 µM; Inhib. power (%) [3]: 1887%; ΔΔG (kJmol^-1) [3]: -6.8 kJmol^-1
CO[C@@H]1O[C@H](C)[C@H](O[C@H]2O[C@H](CO)[C@H](O)[C@H](O)[C@H]2O)[C@H](O)[C@H]1O [Compound 4] | 4200 | 4.7 | 1.7 |  |  |  | 
CC(C)CO[C@@H]1O[C@H](CO)[C@H](O[C@H]2O[C@H](CO)[C@H](O)[C@H](O)[C@H]2O)[C@H](O)[C@H]1O [Compound 19] |  |  |  | 87 | 220 | -1.8 | 
CO[C@H]1O[C@H](CO)[C@H](O[C@H]2O[C@H](CO)[C@H](O)[C@H](O)[C@H]2O)[C@H](O)[C@H]1O [Compound 23] |  |  |  | 2100 | 9.0 | 5.6 | 
OCC(O)CO[C@@H]1O[C@H](CO)[C@H](O[C@H]2O[C@H](CO)[C@H](O)[C@H](O)[C@H]2O)[C@H](O)[C@H]1O (stereo partly shown) [Compound 21] |  |  |  | 130 | 150 | -0.9 | 
C[Si](C)(C)CCO[C@@H]1O[C@H](CO)[C@@H](O[C@@H]2O[C@H](CO)[C@H](O[C@H]3O[C@H](CO)[C@H](O)[C@H](O)[C@H]3O)[C@H](O)[C@H]2O)[C@H](O)[C@H]1O [Compound 22] |  |  |  | 260 | 75 | 0.7 | 
CO[C@@H]1O[C@H](CO)[C@H](O[C@H]2O[C@H](CF)[C@H](O)[C@H](O)[C@H]2O)[C@H](O)[C@H]1O [Compound 14] | 350 | 56 | 0.323 |  |  |  | 
CCS[C@@H]1O[C@H](CO)[C@H](O[C@H]2O[C@H](CO)[C@H](O)[C@H](O)[C@H]2O)[C@H](O)[C@H]1O [Compound 28, Ethyl 1-thio-4-O-(α-D-galactopyranosyl)-β-D-galactopyranoside] |  |  |  |  |  |  | IC50 [2]: 16.3 µM; Inhib. power (%) [3]: 266%; ΔΔG (kJmol^-1) [3]: -2.3 kJmol^-1
CO[C@@H]1O[C@H](CO)[C@H](O[C@H]2O[C@H](CO)[C@H](F)[C@H](O)[C@H]2O)[C@H](O)[C@H]1O [Compound 13] | 3500 | 5.6 | 1.6 |  |  |  | 
OC[C@H]1O[C@H](O[C@@H]2[C@H](O)[C@@H](O)C(O)O[C@@H]2CO)[C@H](O)[C@@H](O)[C@H]1O (stereo partly shown) [Compound 24] |  |  |  | 1400 | 14 | 4.6 | 
CO[C@@H]1O[C@H](CO)[C@H](O[C@H]2O[C@H](C)[C@H](O)[C@H](O)[C@H]2O)[C@H](O)[C@H]1O [Compound 8] | 3700 | 5.3 | 1.63 |  |  |  | 
OC[C@H]1O[C@H](O[C@@H]2[C@H](O)[C@@H](O)[C@H](OCCSCCCCCCCCCSCCO[C@@H]3O[C@H](CO)[C@H](O[C@H]4O[C@H](CO)[C@H](O)[C@H](O)[C@H]4O)[C@H](O)[C@H]3O)O[C@@H]2CO)[C@H](O)[C@@H](O)[C@H]1O [Compound 25] |  |  |  | 6.8 | 2900 | -7.8 | inhibitory power (in words): very high inhibitory power
CC[C@@H]1[C@@H](O)[C@H](OC)O[C@H](CO)[C@@H]1O[C@H]1O[C@H](CO)[C@H](O)[C@H](O)[C@H]1O [Compound 16] | 3800 | 5.1 | 1.65 |  |  |  | 
CO[C@@H]1O[C@H](CO)[C@H](O[C@@H]2C[C@@H](O)[C@@H](O)[C@@H](CO)O2)[C@H](O)[C@H]1O [Compound 5] | 2600 | 7.6 | 1.43 |  |  |  | 
CO[C@@H]1O[C@H](CO)[C@H](O[C@H]2O[C@H](CO)C[C@H](O)[C@H]2O)[C@H](O)[C@H]1O [Compound 7] | 10000 | 1.9 | 2.2 |  |  |  | 
C[Si](C)(C)CCO[C@@H]1O[C@H](CO)[C@H](O[C@H]2O[C@H](CO)[C@H](O)[C@H](O)[C@H]2O)[C@H](O)[C@H]1O [Compound 20] |  |  |  | 49 | 400 | -3.2 | 
CCO[C@@H]1O[C@H](CO)[C@H](O[C@H]2O[C@H](CO)[C@H](O)[C@H](O)[C@H]2O)[C@H](O)[C@H]1O [Compound 18] |  |  |  | 130 | 150 | -0.9 | 
CO[C@@H]1O[C@H](CO)[C@H](O[C@H]2O[C@H](CO)[C@H](O)[C@H](O)[C@H]2O)[C@H](C)[C@H]1O [Compound 15] | 390 | 50 | 0.382 |  |  |  | 
CO[C@@H]1O[C@H](CO)[C@H](O[C@H]2O[C@H](CO)[C@H](O)[C@H](OC)[C@H]2O)[C@H](O)[C@H]1O [Compound 11, Methyl 4-O-(3-O-methyl-α-D-galactopyranosyl)-β-D-galactopyranoside] | 87 | 220 | -0.43 |  |  |  | inhibitory power (in words): marked increase in the inhibitory power
CO[C@@H]1O[C@H](CO)[C@H](O[C@H]2O[C@H](CO)[C@H](O)[C@H](O)[C@H]2O)[C@H](O)[C@H]1O [Compound 1, Galα1-4GalβOMe, reference compound] | 200 |  | 0 | 200 |  | 0.00 | IC50 [2]: 43.4 µM
COC[C@H]1O[C@@H](OC)[C@H](O)[C@@H](O)[C@H]1O[C@H]1O[C@H](CO)[C@H](O)[C@H](O)[C@H]1O [Compound 10] | > 25000 | < 1 | > 2.63 |  |  |  | 
CO[C@@H]1O[C@H](CO)[C@H](O[C@H]2O[C@H](CO)[C@@H](O)[C@H](O)[C@H]2O)[C@H](O)[C@H]1O [Compound 17] | 5100 | 3.8 | 1.82 |  |  |  | 
CO[C@H]1C[C@@H](O)[C@@H](O[C@H]2O[C@H](CO)[C@H](O)[C@H](O)[C@H]2O)[C@@H](CO)O1 [Compound 2] | 350 | 56 | 0.335 |  |  |  | 
CCO[C@@H]1O[C@H](CO)[C@@H](O[C@@H]2O[C@H](CO)[C@H](O)[C@H](O)[C@H]2O)[C@H](O)[C@H]1O [Compound 26, Galβ1-4GlcβOCH2 CH3, reference compound] |  |  |  | > 25000 | < 1.0 | > 11 | 
CO[C@@H]1O[C@H](CF)[C@H](O[C@H]2O[C@H](CO)[C@H](O)[C@H](O)[C@H]2O)[C@H](O)[C@H]1O [Compound 12] | 9300 | 2.1 | 2.15 |  |  |  | 
CO[C@@H]1O[C@H](CO)[C@H](O[C@H]2O[C@H](CO)[C@H](O)[C@H](O)[C@H]2O)[C@H](OC)[C@H]1O [Compound 9] | 1600 | 12 | 1.17 |  |  |  | 
